Data set [1] in a line: Solubility in SLS after sonication. It is filed as physicochemical. The settings on record: 1% w/v SLS, sonication 10 min. Here is the method:
Solubility of: a) 10 mg pure testosterone; and b) formulation PLF-2 equivalent to 10 mg testosterone in either 0.5%, 1%, or 2% SLS following sonication for 10 min. was determined. For these studies, 10 mg of pure testosterone was weighed and dissolved in either 100 ml of 0.5%, 1%, or 2% (w/v) SLS, respectively, in volumetric flasks. An amount of formulation PLF-2 that contained 10 mg of testosterone was weighed, and sample solutions were prepared in a similar way as that described above for the testosterone control. These solutions were subjected for sonication for 10 min in a bath sonicator. The samples were then filtered and diluted suitably in their respective concentrations of SLS. The amounts of soluble testosterone for each concentration of SLS was determined by using the HPLC assay method described in Comparative Example 2.

Data set [2] in a line: Solubility of testosterone in various buffers. Particulars: phosphate buffer pH 6.80, 72 h at RT. It is filed as physicochemical. The protocol: The solubility of testosterone in different media was tested. An amount of testosterone (100 mg) was added to each of four glass vials containing 10 ml of either: a) HCl buffer (pH 1.20), b) Acetate buffer (pH 4.50), c) phosphate buffer solution (PBS) pH 6.80 and d) nano pure water. These samples were subjected for shaking in a water bath for 72 h at RT. The samples were suitably diluted and analyzed by the HPLC assay method described in Comparative Example 2. Solubility of testosterone was high in phosphate buffer pH 6.80.

Consider `C[C@]12CC[C@H]3[C@@H](CCC4=CC(=O)CC[C@@]43C)[C@@H]1CC[C@@H]2O` [testosterone], for which, in data set [1], the testosterone solubility entry is recorded as “high testosterone solubility”. For the same molecule, the Solubility of testosterone entry in data set [2] is “high”.

These data come from patent publication US8957053B2, “Proliposomal testosterone formulations” (Tesorx Pharma, LLC, priority 2012, dated 2015).
